Assay results from patent US20210283176A1, “CALCIUM BINDER FOR USE IN PREVENTING STILLBIRTH” (Nutreco IP Assets B.V, priority 2017, published 2021).

Tested on: sows
Settings: phosphoric acid 0.01 mol/liter (1 g/L), 25 sows, control 1.6 (24 sows)
Experimental: A calcium binder (phosphoric acid, PhA)) was added in a concentration of 0.01 mol/liter (corresponding to 1 g/L of phosphoric acid). The diets fed to the sows were the same.

O=P(O)(O)O [PhA, phosphoric acid]
Stillborn piglets, #: 1.1
